± gives the expanded uncertainty stated by the source.
Experiment: xn = mol fraction of the nth substance listed
Conditions: 101 kPa, Liquid; for viscosity: Falling or rolling sphere viscometry; for mass density: Vibrating tube method

OCC[n+]1ccccc1.[Br-] [1-(2-hydroxyethyl)pyridinium bromide] + O
Conditions | mass density [kg/m3] | viscosity [mPa·s]
298.15 K, x1 = 0.022 | 1071.4 ± 0.6 | 1.138 ± 0.069
298.15 K, x1 = 0.045 | 1131.4 ± 0.5 | 1.415 ± 0.086
298.15 K, x1 = 0.066 | 1177.3 ± 0.5 | 1.761 ± 0.11
298.15 K, x1 = 0.085 | 1211 ± 0.4 | 2.174 ± 0.13
298.15 K, x1 = 0.114 | 1256.4 ± 0.4 | 2.918 ± 0.18
298.15 K, x1 = 0.152 | 1296.4 ± 0.4 | 4.134 ± 0.25
298.15 K, x1 = 0.195 | 1334.4 ± 0.4 | 6.391 ± 0.39
298.15 K, x1 = 0.226 | 1356.7 ± 0.5 | 8.964 ± 0.54
298.15 K, x1 = 0.261 | 1377.5 ± 0.5 | 11.93 ± 0.72
303.15 K, x1 = 0.022 | 1069.5 ± 0.6 | 1.04 ± 0.063
303.15 K, x1 = 0.045 | 1129.2 ± 0.5 | 1.268 ± 0.077
303.15 K, x1 = 0.066 | 1174.8 ± 0.5 | 1.576 ± 0.095
303.15 K, x1 = 0.085 | 1208.3 ± 0.4 | 1.937 ± 0.12
303.15 K, x1 = 0.114 | 1251.9 ± 0.4 | 2.577 ± 0.16
303.15 K, x1 = 0.152 | 1293.5 ± 0.4 | 3.62 ± 0.22
303.15 K, x1 = 0.195 | 1331.4 ± 0.4 | 5.528 ± 0.34
303.15 K, x1 = 0.226 | 1353.6 ± 0.5 | 7.799 ± 0.47
303.15 K, x1 = 0.261 | 1374.3 ± 0.5 | 10.25 ± 0.62
308.15 K, x1 = 0.022 | 1067.5 ± 0.6 | 0.947 ± 0.057
308.15 K, x1 = 0.045 | 1126.8 ± 0.5 | 1.148 ± 0.069
308.15 K, x1 = 0.066 | 1172.2 ± 0.5 | 1.424 ± 0.086
308.15 K, x1 = 0.085 | 1205.7 ± 0.4 | 1.744 ± 0.11
308.15 K, x1 = 0.114 | 1247.7 ± 0.4 | 2.309 ± 0.14
308.15 K, x1 = 0.152 | 1290.5 ± 0.4 | 3.233 ± 0.2
308.15 K, x1 = 0.195 | 1328.4 ± 0.4 | 4.908 ± 0.3
308.15 K, x1 = 0.226 | 1350.4 ± 0.5 | 6.784 ± 0.41
308.15 K, x1 = 0.261 | 1371.2 ± 0.5 | 8.888 ± 0.54
313.15 K, x1 = 0.022 | 1065.2 ± 0.6 | 0.867 ± 0.052
313.15 K, x1 = 0.045 | 1124.3 ± 0.5 | 1.046 ± 0.063
313.15 K, x1 = 0.066 | 1169.6 ± 0.5 | 1.294 ± 0.078
313.15 K, x1 = 0.085 | 1202.9 ± 0.4 | 1.581 ± 0.096
313.15 K, x1 = 0.114 | 1244.9 ± 0.4 | 2.082 ± 0.13
313.15 K, x1 = 0.152 | 1287.5 ± 0.4 | 2.894 ± 0.17
313.15 K, x1 = 0.195 | 1325.3 ± 0.4 | 4.33 ± 0.26
313.15 K, x1 = 0.226 | 1347.3 ± 0.5 | 5.9 ± 0.36
313.15 K, x1 = 0.261 | 1368 ± 0.5 | 7.704 ± 0.47
318.15 K, x1 = 0.022 | 1062.7 ± 0.6 | 0.8 ± 0.048
318.15 K, x1 = 0.045 | 1121.8 ± 0.5 | 0.96 ± 0.058
318.15 K, x1 = 0.066 | 1166.9 ± 0.5 | 1.184 ± 0.072
318.15 K, x1 = 0.085 | 1200.1 ± 0.4 | 1.44 ± 0.087
318.15 K, x1 = 0.114 | 1241.9 ± 0.4 | 1.887 ± 0.11
318.15 K, x1 = 0.152 | 1284.5 ± 0.4 | 2.604 ± 0.16
318.15 K, x1 = 0.195 | 1322.2 ± 0.4 | 3.868 ± 0.23
318.15 K, x1 = 0.226 | 1344.2 ± 0.4 | 5.148 ± 0.31
318.15 K, x1 = 0.261 | 1364.8 ± 0.5 | 6.721 ± 0.41
323.15 K, x1 = 0.022 | 1060.2 ± 0.6 | 0.741 ± 0.045
323.15 K, x1 = 0.045 | 1119.1 ± 0.5 | 0.886 ± 0.054
323.15 K, x1 = 0.066 | 1164.1 ± 0.5 | 1.086 ± 0.066
323.15 K, x1 = 0.085 | 1197.2 ± 0.4 | 1.32 ± 0.08
323.15 K, x1 = 0.114 | 1238.9 ± 0.4 | 1.721 ± 0.1
323.15 K, x1 = 0.152 | 1281.4 ± 0.4 | 2.36 ± 0.14
323.15 K, x1 = 0.195 | 1319 ± 0.4 | 3.478 ± 0.21
323.15 K, x1 = 0.226 | 1341 ± 0.4 | 4.527 ± 0.27
323.15 K, x1 = 0.261 | 1361.6 ± 0.5 | 5.895 ± 0.36
328.15 K, x1 = 0.022 | 1057.8 ± 0.6 | 0.692 ± 0.042
328.15 K, x1 = 0.045 | 1116.2 ± 0.5 | 0.82 ± 0.05
328.15 K, x1 = 0.066 | 1161.1 ± 0.5 | 1.008 ± 0.061
328.15 K, x1 = 0.085 | 1194.2 ± 0.4 | 1.215 ± 0.074
328.15 K, x1 = 0.114 | 1235.9 ± 0.4 | 1.578 ± 0.095
328.15 K, x1 = 0.152 | 1278.3 ± 0.4 | 2.149 ± 0.13
328.15 K, x1 = 0.195 | 1315.9 ± 0.4 | 3.137 ± 0.19
328.15 K, x1 = 0.226 | 1337.8 ± 0.4 | 4.03 ± 0.24
328.15 K, x1 = 0.261 | 1358.4 ± 0.5 | 5.207 ± 0.32
333.15 K, x1 = 0.022 | 1055.5 ± 0.5 | 0.645 ± 0.039
333.15 K, x1 = 0.045 | 1113.1 ± 0.5 | 0.766 ± 0.046
333.15 K, x1 = 0.066 | 1158.1 ± 0.5 | 0.933 ± 0.056
333.15 K, x1 = 0.085 | 1191.2 ± 0.4 | 1.126 ± 0.068
333.15 K, x1 = 0.114 | 1232.8 ± 0.4 | 1.451 ± 0.088
333.15 K, x1 = 0.152 | 1275.2 ± 0.4 | 1.969 ± 0.12
333.15 K, x1 = 0.195 | 1312.7 ± 0.4 | 2.833 ± 0.17
333.15 K, x1 = 0.226 | 1334.6 ± 0.4 | 3.615 ± 0.22
333.15 K, x1 = 0.261 | 1355.2 ± 0.5 | 4.632 ± 0.28
338.15 K, x1 = 0.022 | 1053.3 ± 0.5 | 0.608 ± 0.037
338.15 K, x1 = 0.045 | 1111 ± 0.5 | 0.716 ± 0.043
338.15 K, x1 = 0.066 | 1155.7 ± 0.5 | 0.869 ± 0.053
338.15 K, x1 = 0.085 | 1187.8 ± 0.4 | 1.045 ± 0.063
338.15 K, x1 = 0.114 | 1229.7 ± 0.4 | 1.344 ± 0.081
338.15 K, x1 = 0.152 | 1272 ± 0.4 | 1.809 ± 0.11
338.15 K, x1 = 0.195 | 1309.5 ± 0.4 | 2.599 ± 0.16
338.15 K, x1 = 0.226 | 1331.4 ± 0.4 | 3.284 ± 0.2
338.15 K, x1 = 0.261 | 1352 ± 0.5 | 4.101 ± 0.25
343.15 K, x1 = 0.022 | 1051 ± 0.5 | 0.571 ± 0.035
343.15 K, x1 = 0.045 | 1108.4 ± 0.5 | 0.674 ± 0.041
343.15 K, x1 = 0.066 | 1153 ± 0.5 | 0.816 ± 0.049
343.15 K, x1 = 0.085 | 1184.6 ± 0.4 | 0.976 ± 0.059
343.15 K, x1 = 0.114 | 1226.5 ± 0.4 | 1.257 ± 0.076
343.15 K, x1 = 0.152 | 1268.8 ± 0.4 | 1.696 ± 0.1
343.15 K, x1 = 0.195 | 1306.3 ± 0.4 | 2.37 ± 0.14
343.15 K, x1 = 0.226 | 1328.2 ± 0.4 | 2.945 ± 0.18
343.15 K, x1 = 0.261 | 1348.7 ± 0.5 | 3.732 ± 0.23
348.15 K, x1 = 0.022 | 1048.8 ± 0.5 | 0.538 ± 0.033
348.15 K, x1 = 0.045 | 1105.8 ± 0.5 | 0.634 ± 0.038
348.15 K, x1 = 0.066 | 1150.3 ± 0.5 | 0.763 ± 0.046
348.15 K, x1 = 0.085 | 1181.8 ± 0.4 | 0.911 ± 0.055
348.15 K, x1 = 0.114 | 1223.1 ± 0.4 | 1.197 ± 0.072
348.15 K, x1 = 0.152 | 1265.5 ± 0.4 | 1.605 ± 0.097
348.15 K, x1 = 0.195 | 1303 ± 0.4 | 2.228 ± 0.14
348.15 K, x1 = 0.226 | 1324.9 ± 0.4 | 2.693 ± 0.16
348.15 K, x1 = 0.261 | 1345.5 ± 0.5 | 3.372 ± 0.2
